Laboratory results taken from PubChem BioAssay (NCI).
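GI50 marks 50% less growth. TGI is the concentration that stops growth completely.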

How the values were obtained:
Test in all cases: NCI tumour cell line growth inhibition, 384-well format
[1] = test system: SK-MEL-28 melanoma
[2] = test system: HL-60(TB) leukemia
[3] = test system: U251 glioblastoma
[4] = test system: SK-MEL-5 melanoma
[5] = test system: HCC-2998 colon
[6] = test system: HCT-116 colon
[7] = test system: MDA-MB-231 breast
[8] = test system: CCRF-CEM leukemia
[9] = test system: A498 renal
[10] = test system: COLO 205 colon
[11] = test system: NCI/ADR-RES ovarian
[12] = test system: NCI-H522 lung
[13] = test system: RXF 393 renal
[14] = test system: CAKI-1 renal
[15] = test system: ACHN renal
[16] = test system: SK-OV-3 ovarian
[17] = test system: SK-MEL-2 melanoma
[18] = test system: BT-549 breast
[19] = test system: OVCAR-8 ovarian
[20] = test system: RPMI-8226 leukemia
[21] = test system: OVCAR-3 ovarian
[22] = test system: DU-145 prostate
[23] = test system: UACC-257 melanoma
[24] = test system: NCI-H322M lung
[25] = test system: TK-10 renal
[26] = test system: HOP-92 NSCLC
[27] = test system: MALME-3M melanoma
[28] = test system: SNB-19 CNS
[29] = test system: SF-268 CNS
[30] = test system: MDA-MB-468 breast
[31] = test system: LOX IMVI melanoma
[32] = test system: M14 melanoma
[33] = test system: HCT-15 colon
[34] = test system: SR leukemia
[35] = test system: SN12C renal
[36] = test system: KM12 colon
[37] = test system: UACC-62 melanoma
[38] = test system: 786-0 renal
[39] = test system: NCI-H460 NSCLC
[40] = test system: NCI-H226 lung
[41] = test system: PC-3 prostate
[42] = test system: SF-295 CNS
[43] = test system: NCI-H23 lung
[44] = test system: A549 NSCLC
[45] = test system: HOP-62 NSCLC
[46] = test system: SW-620 colon
[47] = test system: OVCAR-5 ovarian
[48] = test system: MCF7 breast
[49] = test system: IGROV1 ovarian
[50] = test system: T-47D breast
[51] = test system: K-562 leukemia
[52] = test system: SF-539 CNS
[53] = test system: MOLT-4 leukemia
[54] = test system: UO-31 renal
[55] = test system: MDA-MB-435 melanoma
[56] = test system: HT29 colon
[57] = test system: OVCAR-4 ovarian
[58] = test system: EKVX NSCLC
[59] = test system: HS 578T breast
[60] = test system: SNB-75 CNS

SMILES: C#CCN(c1ccc(C(=O)N[C@@H](CCC(=O)N[C@H](CCC(=O)O)C(=O)O)C(=O)O)cc1)C1CCc2cc3nc(CO)[nH]c(=O)c3cc21 (some centres not stated)
- GI50 [1]: 5.13 µM
- TGI [1]: > 100 µM
- GI50 [2]: 3.02 µM
- TGI [2]: 7.56 µM
- GI50 [3]: 68.9 µM
- TGI [3]: > 100 µM
- GI50 [4]: 11.6 µM
- TGI [4]: > 100 µM
- GI50 [5]: 0.386 µM
- TGI [5]: 3.96 µM
- GI50 [6]: 4.57 µM
- TGI [6]: > 100 µM
- GI50 [7]: > 100 µM
- TGI [7]: > 100 µM
- GI50 [8]: 1.97 µM
- TGI [8]: 4.68 µM
- GI50 [9]: 5.06 µM
- TGI [9]: > 100 µM
- GI50 [10]: 7.84 µM
- TGI [10]: > 100 µM
- GI50 [11]: 3.18 µM
- TGI [11]: 8.45 µM
- GI50 [12]: 3.04 µM
- TGI [12]: 7.83 µM
- GI50 [13]: 8.09 µM
- TGI [13]: 71.9 µM
- GI50 [14]: 8.9 µM
- TGI [14]: > 100 µM
- GI50 [15]: 4.25 µM
- TGI [15]: > 100 µM
- GI50 [16]: 43.2 µM
- TGI [16]: > 100 µM
- GI50 [17]: 99.9 µM
- TGI [17]: > 100 µM
- GI50 [18]: 6.68 µM
- TGI [18]: > 100 µM
- GI50 [19]: 4.54 µM
- TGI [19]: > 100 µM
- GI50 [20]: 2 µM
- TGI [20]: 4.03 µM
- GI50 [21]: 9.01 µM
- TGI [21]: > 100 µM
- GI50 [22]: 3.49 µM
- TGI [22]: 20.3 µM
- GI50 [23]: > 100 µM
- TGI [23]: > 100 µM
- GI50 [24]: > 100 µM
- TGI [24]: > 100 µM
- GI50 [25]: 6.69 µM
- TGI [25]: > 100 µM
- GI50 [26]: 13.3 µM
- TGI [26]: > 100 µM
- GI50 [27]: > 100 µM
- TGI [27]: > 100 µM
- GI50 [28]: 5.96 µM
- TGI [28]: > 100 µM
- GI50 [29]: 4.09 µM
- TGI [29]: 27.5 µM
- GI50 [30]: 3.72 µM
- TGI [30]: 8.76 µM
- GI50 [31]: 5.03 µM
- TGI [31]: > 100 µM
- GI50 [32]: 8.69 µM
- TGI [32]: > 100 µM
- GI50 [33]: 5.2 µM
- TGI [33]: > 100 µM
- GI50 [34]: 1.9 µM
- TGI [34]: 3.38 µM
- GI50 [35]: 3.75 µM
- TGI [35]: 46.9 µM
- GI50 [36]: > 100 µM
- TGI [36]: > 100 µM
- GI50 [37]: 64.6 µM
- TGI [37]: > 100 µM
- GI50 [38]: 3.69 µM
- TGI [38]: 31.1 µM
- GI50 [39]: 5.02 µM
- TGI [39]: > 100 µM
- GI50 [40]: 35.4 µM
- TGI [40]: > 100 µM
- GI50 [41]: 9.44 µM
- TGI [41]: > 100 µM
- GI50 [42]: 2.76 µM
- TGI [42]: 7 µM
- GI50 [43]: 21.9 µM
- TGI [43]: 57.3 µM
- GI50 [44]: 5.94 µM
- TGI [44]: > 100 µM
- GI50 [45]: 10.5 µM
- TGI [45]: 45.8 µM
- GI50 [46]: 9 µM
- TGI [46]: > 100 µM
- GI50 [47]: > 100 µM
- TGI [47]: > 100 µM
- GI50 [48]: 0.8 µM
- TGI [48]: > 100 µM
- GI50 [49]: 60.3 µM
- TGI [49]: > 100 µM
- GI50 [50]: > 100 µM
- TGI [50]: > 100 µM
- GI50 [51]: 7.67 µM
- TGI [51]: > 100 µM
- GI50 [52]: 4.67 µM
- TGI [52]: > 100 µM
- GI50 [53]: 2.67 µM
- TGI [53]: 5.52 µM
- GI50 [54]: 4.46 µM
- TGI [54]: 62.4 µM
- GI50 [55]: > 100 µM
- TGI [55]: > 100 µM
- GI50 [56]: 5.23 µM
- TGI [56]: > 100 µM
- GI50 [57]: > 100 µM
- TGI [57]: > 100 µM

SMILES: Cc1cc(Nc2nc(N[C@@H](C)c3ncc(F)cn3)ncc2Cl)n[nH]1
- GI50 [1]: 59.1 µM
- TGI [1]: > 100 µM
- GI50 [2]: 16 µM
- TGI [2]: 31 µM
- GI50 [3]: 32.1 µM
- TGI [3]: > 100 µM
- GI50 [4]: 30.5 µM
- TGI [4]: > 100 µM
- GI50 [5]: 28.3 µM
- TGI [5]: > 100 µM
- GI50 [6]: 17.4 µM
- TGI [6]: > 100 µM
- GI50 [7]: 27.5 µM
- TGI [7]: > 100 µM
- GI50 [8]: 20.7 µM
- TGI [8]: 45.1 µM
- GI50 [9]: 35.8 µM
- TGI [9]: > 100 µM
- GI50 [10]: 41 µM
- TGI [10]: > 100 µM
- GI50 [11]: 20.2 µM
- TGI [11]: 60.4 µM
- GI50 [12]: 4.66 µM
- TGI [12]: 28.5 µM
- GI50 [13]: 18.9 µM
- TGI [13]: 46 µM
- GI50 [14]: 23.7 µM
- TGI [14]: > 100 µM
- GI50 [15]: 31.2 µM
- TGI [15]: > 100 µM
- GI50 [16]: 18.6 µM
- TGI [16]: 78.1 µM
- GI50 [17]: 44.7 µM
- TGI [17]: 85.1 µM
- GI50 [18]: 20.7 µM
- TGI [18]: 78.1 µM
- GI50 [58]: 23.9 µM
- TGI [58]: 79.3 µM
- GI50 [20]: 18.4 µM
- TGI [20]: 73 µM
- GI50 [21]: 43.8 µM
- TGI [21]: > 100 µM
- GI50 [22]: 37.1 µM
- TGI [22]: > 100 µM
- GI50 [23]: > 100 µM
- TGI [23]: > 100 µM
- GI50 [24]: 42.6 µM
- TGI [24]: > 100 µM
- GI50 [25]: 34.6 µM
- TGI [25]: > 100 µM
- GI50 [26]: 27.8 µM
- TGI [26]: 91.3 µM
- GI50 [27]: 52.8 µM
- TGI [27]: > 100 µM
- GI50 [28]: 47.5 µM
- TGI [28]: > 100 µM
- GI50 [29]: 18.4 µM
- TGI [29]: 63.4 µM
- GI50 [30]: 17.3 µM
- TGI [30]: 33.1 µM
- GI50 [59]: 11.6 µM
- TGI [59]: 29.9 µM
- GI50 [31]: 27.6 µM
- TGI [31]: 71 µM
- GI50 [32]: 61.7 µM
- TGI [32]: > 100 µM
- GI50 [33]: 26.4 µM
- TGI [33]: > 100 µM
- GI50 [34]: 5.01 µM
- TGI [34]: 12.2 µM
- GI50 [35]: 31.3 µM
- TGI [35]: > 100 µM
- GI50 [36]: 0.381 µM
- TGI [36]: > 100 µM
- GI50 [37]: 40.7 µM
- TGI [37]: > 100 µM
- GI50 [38]: 33.6 µM
- TGI [38]: > 100 µM
- GI50 [60]: 8.7 µM
- TGI [60]: 27.9 µM
- GI50 [39]: 21.5 µM
- TGI [39]: > 100 µM
- GI50 [40]: 12 µM
- TGI [40]: > 100 µM
- GI50 [41]: 42.1 µM
- TGI [41]: > 100 µM
- GI50 [42]: 47.4 µM
- TGI [42]: > 100 µM
- GI50 [43]: 35.2 µM
- TGI [43]: > 100 µM
- GI50 [44]: 30.4 µM
- TGI [44]: > 100 µM
- GI50 [45]: 39.1 µM
- TGI [45]: > 100 µM
- GI50 [46]: 24.3 µM
- TGI [46]: 91.3 µM
- GI50 [47]: 45.1 µM
- TGI [47]: > 100 µM
- GI50 [48]: 44.3 µM
- TGI [48]: > 100 µM
- GI50 [49]: 27.8 µM
- TGI [49]: > 100 µM
- GI50 [50]: 29.8 µM
- TGI [50]: > 100 µM
- GI50 [51]: 27.9 µM
- TGI [51]: > 100 µM
- GI50 [52]: 14 µM
- TGI [52]: 34.1 µM
- GI50 [53]: 16.7 µM
- TGI [53]: 33.8 µM
- GI50 [54]: 36.7 µM
- TGI [54]: > 100 µM
- GI50 [55]: 17.1 µM
- TGI [55]: > 100 µM
- GI50 [56]: 27.4 µM
- TGI [56]: > 100 µM
- GI50 [57]: 77.8 µM
- TGI [57]: > 100 µM
